How the values were obtained:
[1] = biological target: T1, ALK2 R206H (GST-tagged mutant ALK2) (Homo sapiens, UniProt Q04771, R206H); test: ALK binding assay (LANTHASCREEN TR-FRET competitive binding, displacement of Kinase Tracer 178); details: ALK2 R206H, LANTHASCREEN TR-FRET competitive binding; read-out: Binding Assay (IC50)
T1 construct: purchased Carna Bioscience or ThermoFisher 09-148 or PV6232
T1 sequence (Q04771 21-509 R206H): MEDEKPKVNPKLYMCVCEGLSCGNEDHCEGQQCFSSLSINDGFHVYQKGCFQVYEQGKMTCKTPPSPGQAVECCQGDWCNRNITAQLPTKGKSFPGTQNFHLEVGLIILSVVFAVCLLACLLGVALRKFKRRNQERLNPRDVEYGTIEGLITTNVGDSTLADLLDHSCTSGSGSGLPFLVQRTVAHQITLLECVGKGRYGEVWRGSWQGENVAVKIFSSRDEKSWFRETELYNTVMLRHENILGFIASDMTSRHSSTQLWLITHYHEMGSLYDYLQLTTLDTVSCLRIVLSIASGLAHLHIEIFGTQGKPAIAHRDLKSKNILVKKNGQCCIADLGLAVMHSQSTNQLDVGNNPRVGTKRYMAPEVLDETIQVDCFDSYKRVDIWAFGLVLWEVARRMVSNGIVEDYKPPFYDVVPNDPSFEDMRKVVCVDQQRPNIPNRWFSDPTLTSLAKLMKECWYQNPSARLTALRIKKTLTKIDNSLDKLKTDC

[2] = biological target: T2, human ALK2 R206H (Homo sapiens, UniProt Q04771, R206H); test: Cell-based ALK2-R206H cell activity assay (Smad1-Ser463/Ser465 phosphorylation by AlphaLISA in HEK293-ALK2-R206H cells); details: read-out: Cell Line (Cell Assay IC50)
T2 construct: expressed in transfected cells; host or cells: HEK293 (ATCC CRL1573), lentivirus transduction, blasticidin selection
T2 sequence (Q04771 21-509 R206H): T1 sequence (Q04771 21-509 R206H)
Summary of the method: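 Stable HEK293 cells expressing C-terminally FLAG-tagged human ALK2 R206H (lentiviral, blasticidin-selected) were treated with compounds in 10-point, 3-fold dilutions from 10 μM or 1 μM top, in duplicate. Smad1 Ser463/Ser465 phosphorylation was read by AlphaLISA.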

Row | SMILES | IC50 [1] [nM] | IC50 [2] [nM]
1 | CCN1CCN(c2ccc(-c3cc4c(N5CCN(C(=O)N6CCC6)CC5)ccnn4c3)cc2)CC1 [Compound 272] | 10 to 50 | 100 to 500
2 | CCN1CC[C@H](c2ccc(-c3cc4c(N5CCN(C(=O)C6CC6)CC5)ccnn4c3)cc2)C(F)C1 (some centres unmarked) [Compound 279] | 10 to 50 | 100 to 500
3 | CCN1CC[C@@H](c2ccc(-c3cc4c(N5CCN(C(=O)C6CC6)CC5)ccnn4c3)cc2)C(F)C1 (some centres unmarked) [Compound 280] | 10 to 50 | 100 to 500
4 | CCN1CCN(c2ccc(-c3cc4c(N5CCN(C(=O)[C@H]6C[C@H]6C#N)CC5)ccnn4c3)cc2)CC1 [Compound 301] | < 10 | 100 to 500
5 | CCN1CCN(c2ccc(-c3cc4c(N5CCN(C(=O)[C@H]6C[C@@H]6C#N)CC5)ccnn4c3)cc2)CC1 [Compound 302] | < 10 | < 100
6 | CCN1CC[C@@H](c2ccc(-c3cc4c(N5CCN(C(=O)N6CC(C#N)C6)CC5)ccnn4c3)cc2)C1 [Compound 303] | < 10 | < 100
7 | CCN1CC[C@H](c2ccc(-c3cc4c(N5CCN(C(=O)N6CC(C#N)C6)CC5)ccnn4c3)cc2)C1 [Compound 304] | < 10 | < 100
8 | O=C(C1CC1)N1CCN(c2ccnn3cc(-c4ccc([C@@H]5CCCN(C6CCC6)C5)cc4)cc23)CC1 [Compound 305] | < 10 | < 100
9 | O=C(C1CC1)N1CCN(c2ccnn3cc(-c4ccc(N5CCN6CCCCC6C5)cc4)cc23)CC1 (centres unmarked) [Compound 307] | < 10 | 100 to 500
10 | CC(C)N1CC2(CN(c3ccc(-c4cc5c(N6CCN(C(=O)C7CC7)CC6)ccnn5c4)cc3)C2)C1 [Compound 308] | < 10 | < 100
11 | N#CC1CN(C(=O)N2CCN(c3ccnn4cc(-c5ccc(OC6CCCNC6)cc5)cc34)CC2)C1 (centres unmarked) [Compound 309] | < 10 | 100 to 500
12 | O=C(C1CC1)N1CCN(c2ccnn3cc(-c4ccc(C5CCN(C6COC6)CC5)cc4)cc23)CC1 [Compound 310] | < 10 | 100 to 500
13 | CC(C)N1CCCC(c2ccc(-c3cc4c(N5CCN(C(=O)C6CCC6)CC5)ccnn4c3)cc2)C1 (centres unmarked) [Compound 312] | < 10 | < 100
14 | CCC(C)N1CCC(c2ccc(-c3cc4c(N5CCN(C(=O)C6CC6)CC5)ccnn4c3)cc2)CC1 (centres unmarked) [Compound 313] | < 10 | < 100
15 | O=C(C1CC1)N1CCN(c2ccnn3cc(-c4ccc(N5CCN(C6COC6)CC5)cc4)cc23)CC1 [Compound 314, cyclopropyl(4-(6-(4-(4-(oxetan-3-yl)piperazin-1-yl)phenyl)pyrrolo[1,2-b]pyridazin-4-yl)piperazin-1-yl)methanone] | 10 to 50 | > 500
16 | O=C(C1CC1)N1CCN(c2ccnn3cc(-c4ccc(N5CCN6CCOCC6C5)cc4)cc23)CC1 (centres unmarked) [Compound 315] | 10 to 50 | 100 to 500
17 | CCN1CCN(c2ccc(-c3cc4c(N5CCN(C(=O)C6CC6)CC5)ccnn4c3)cc2)CC1(C)C [Compound 316] | < 10 | 100 to 500
18 | CCN1CCC(c2ccc(-c3cc4c(N5CCN(C(=O)N6CCCC6)CC5)ccnn4c3)cc2)CC1 [Compound 317] | < 10 | 100 to 500
19 | CC(C)N1CCN(c2ccc(-c3cc4c(N5CCN(C(=O)C6CC6)[C@H](C)C5)ccnn4c3)cc2)CC1 [Compound 318] | < 10 | 100 to 500
20 | CC(C)N1CC[C@H](c2ccc(-c3cc4c(N5CCN(C(=O)[C@H]6C[C@H](O)C6)CC5)ccnn4c3)cc2)C1 [Compound 320] | < 10 | < 100
21 | CC(C)N1CC[C@@H](c2ccc(-c3cc4c(N5CCN(C(=O)[C@H]6C[C@H](O)C6)CC5)ccnn4c3)cc2)C1 [Compound 321] | < 10 | < 100
22 | CCN1CCC(c2ccc(-c3cc4c(N5CCN(C(=O)OC6CCC6)CC5)ccnn4c3)cc2)CC1 [Compound 322] | < 10 | < 100
23 | CC(C)N1CCCC(O)(c2ccc(-c3cc4c(N5CCN(C(=O)C6CC6)CC5)ccnn4c3)cc2)C1 (centres unmarked) [Compound 323] | < 10 | < 100
24 | CC(C)N1CCC(O)(c2ccc(-c3cc4c(N5CCN(C(=O)C6CC6)CC5)ccnn4c3)cc2)CC1 [Compound 324] | < 10 | < 100
25 | CC(C)N1CCC[C@@](O)(c2ccc(-c3cc4c(N5CCN(C(=O)C6CC6)CC5)ccnn4c3)cc2)C1 [Compound 325] | < 10 | < 100
26 | CC(C)N1CCC[C@](O)(c2ccc(-c3cc4c(N5CCN(C(=O)C6CC6)CC5)ccnn4c3)cc2)C1 [Compound 326] | < 10 | < 100

More lines, now with the values ahead:

Row | IC50 [1] [nM] | IC50 [2] [nM] | SMILES
27 | < 10 | 100 to 500 | CC(C)N1CCC(O)(c2ccc(-c3cc4c(N5CCN(C(=O)C6CC6)CC5)ccnn4c3)cc2)C1 (centres unmarked) [Compound 271]
28 | < 10 | 100 to 500 | O=C(C1CC1)N1CCN(c2ccnn3cc(-c4ccc(N5CCN(CCO)CC5)cc4)cc23)CC1 [Compound 274, cyclopropyl(4-(6-(4-(4-(2-hydroxyethyl)piperazin-1-yl)phenyl)pyrrolo[1,2-b]pyridazin-4-yl)piperazin-1-yl)methanone]
29 | < 10 | < 100 | CCNC(=O)N1CCN(c2ccnn3cc(-c4ccc(C5CCN(C(C)C)CC5)cc4)cc23)CC1 [Compound 275, N-ethyl-4-(6-(4-(1-isopropylpiperidin-4-yl)phenyl)pyrrolo[1,2-b]pyridazin-4-yl)piperazine-1-carboxamide]
30 | < 10 | < 100 | CCNC(=O)N1CCN(c2ccnn3cc(-c4ccc([C@@H]5CCCN(C(C)C)C5)cc4)cc23)CC1 [Compound 276]
31 | < 10 | < 100 | CCNC(=O)N1CCN(c2ccnn3cc(-c4ccc([C@H]5CCCN(C(C)C)C5)cc4)cc23)CC1 [Compound 277]
32 | < 10 | < 100 | CCN1CCC(c2ccc(-c3cc4c(N5CCN(C(=O)C6CC6)CC5)ccnn4c3)cc2)C(F)C1 (centres unmarked) [Compound 278]
33 | < 10 | < 100 | CCN1CCC(c2ccc(-c3cc4c(N5CCN(C(=O)[C@H]6C[C@H]6F)CC5)ccnn4c3)cc2)CC1 [Compound 281]
34 | < 10 | < 100 | CC(C)N1CC(F)C(c2ccc(-c3cc4c(N5CCN(C(=O)C6CC6)CC5)ccnn4c3)cc2)C1 (centres unmarked) [Compound 282]
35 | < 10 | 100 to 500 | CC(C)N1CC[C@@H](c2ccc(-c3cc4c(N5CCN(C(=O)C6CC6)CC5)ccnn4c3)cc2F)C1 [Compound 283]
36 | < 10 | < 100 | CC(C)N1CC[C@H](c2ccc(-c3cc4c(N5CCN(C(=O)C6CC6)CC5)ccnn4c3)cc2F)C1 [Compound 284]
37 | < 10 | < 100 | CCN1CCC(c2ccc(-c3cc4c(N5CCN(C(=O)OC(C)C)CC5)ccnn4c3)cc2)CC1 [Compound 285]
38 | < 10 | 100 to 500 | CCOC(=O)N1CCN(c2ccnn3cc(-c4ccc(C5CCN(CC)CC5)cc4)cc23)C[C@H]1C [Compound 286]
39 | < 10 | < 100 | CCOC(=O)N1CCN(c2ccnn3cc(-c4ccc([C@@H]5CCCN(C(C)C)C5)cc4)cc23)CC1 [Compound 287]
40 | < 10 | < 100 | CCOC(=O)N1CCN(c2ccnn3cc(-c4ccc([C@H]5CCCN(C(C)C)C5)cc4)cc23)CC1 [Compound 288]
41 | < 10 | < 100 | CCNC(=O)N1CCN(c2ccnn3cc(-c4ccc(N5CCN(C(C)C)CC5)cc4)cc23)CC1 [Compound 289]
42 | < 10 | < 100 | CCNC(=O)N1CCN(c2ccnn3cc(-c4ccc(C5CCN(C(C)C)CC5)cn4)cc23)CC1 [Compound 290]
43 | < 10 | < 100 | CCN1CCN(c2ccc(-c3cc4c(N5CCN(C(=O)[C@@H]6C[C@H]6F)CC5)ccnn4c3)cc2)CC1 [Compound 292]
44 | < 10 | < 100 | CCN1CCN(c2ccc(-c3cc4c(N5CCN(C(=O)[C@H]6C[C@H]6F)CC5)ccnn4c3)cc2)CC1 [Compound 293]
45 | < 10 | < 100 | CCOC(=O)N1CCN(c2ccnn3cc(-c4ccc(N5CCN(C(C)C)CC5)cc4)cc23)CC1 [Compound 295]
46 | < 10 | 100 to 500 | O=C(C1CC(F)(F)C1)N1CCN(c2ccnn3cc(-c4ccc(N5CCNCC5)cc4)cc23)CC1 [Compound 296]
47 | < 10 | < 100 | O=C(C1CC1)N1CCN(c2ccnn3cc(-c4ccc(N5CCNCC5C(F)F)cc4)cc23)CC1 (centres unmarked) [Compound 297]
48 | < 10 | < 100 | CC(C)N1CC[C@@H](c2ccc(-c3cc4c(N5CCN(C(=O)[C@H]6C[C@@H]6C#N)CC5)ccnn4c3)cc2)C1 [Compound 298]
49 | < 10 | < 100 | CCN1CCC(c2ccc(-c3cc4c(N5CCN(C(=O)N6CC(C#N)C6)CC5)ccnn4c3)cc2)C1 (centres unmarked) [Compound 300, 1-(4-(6-(4-(1-ethylpyrrolidin-3-yl)phenyl)pyrrolo[1,2-b]pyridazin-4-yl)piperazine-1-carbonyl)azetidine-3-carbonitrile]
